These are literature values, as cited in patent US20010036658A1, “Culture media for growing spirochetes” (priority 1997, published 2001).

Where two headings read alike, the source gives them in different places.

`COc1cccc2c1C(=O)c1c(O)c3c(c(O)c1C2=O)C[C@@](O)(C(=O)CO)C[C@@H]3O[C@H]1C[C@H](N)[C@H](O)[C@H](C)O1` [doxorubicin]: the anti-bacterial activity entry in the data set with L-forms of bacteria (certain L-forms of bacteria) is listed as “dramatic anti-bacterial activity”; in the data set with L-forms of bacteria (parent forms of the same bacteria) it was “without any demonstrable effect”. Moreover, the “conversion of normal erythrocytes to echinocytes” value with erythrocytes is recorded as “prevents”.
